# Source: US8680108B2, “Substituted fused aryl and heteroaryl derivatives as PI3K inhibitors” (Incyte Corporation, priority 2009, dated 2014)
# Counter-ions that a name gives are not always drawn.
# Target: T1, PI3Kδ (p110δ/p85α) (Homo sapiens, UniProt O00329)
# T1 construct: purchased Millipore (Bedford, Mass.)
# Experiment: PI3Kδ scintillation proximity assay
# Format: biochemical
# Conditions: not given
# From the text: Materials: [γ-^33P]ATP (10 mCi/mL) was purchased from Perkin-Elmer (Waltham, Mass.). Lipid kinase substrate, D-myo-Phosphatidylinositol 4,5-bisphosphate (PtdIns(4,5)P2)D (+)-sn-1,2-di-O-octanoylglyceryl, 3-O-phospho linked (PIP2), CAS 204858-53-7, was purchased from Echelon Biosciences (Salt Lake City, Utah). PI3Kδ (p110δ/p85α) was purchased from Millipore (Bedford, Mass.). ATP, MgCl2, DTT, EDTA, MOPS and CHAPS were purchased from Sigma-Aldrich (St. Louis, Mo.). Wheat Germ Agglutinin (WGA) YSi SPA Scintillation Beads was purchased from GE healthcare life sciences (Piscataway, N.J.).
# Assay: The kinase reaction was conducted in polystyrene 384-well matrix white plate from Thermo Fisher Scientific in a final volume of 25 μL. Inhibitors were first diluted serially in DMSO and added to the plate wells before the addition of other reaction components. The final concentration of DMSO in the assay was 0.5%. The PI3K assays were carried out at room temperature in 20 mM MOPS, pH 6.7, 10 mM MgCl2, 5 mM DTT and CHAPS 0.03%. Reactions were initiated by the addition of ATP, the final reaction mixture consisted of 20 μM PIP2, 20 μM ATP, 0.2 μCi [γ-^33P] ATP, 4 nM PI3Kδ. Reactions were incubated for 210 minutes and terminated by the addition of 40 μL SPA beads suspended in quench buffer: 150 mM potassium phosphate pH 8.0, 20% glycerol. 25 mM EDTA, 400 μM ATP. The final concentration of SPA beads is 1.0 mg/mL. After the plate sealing, plates were shaken overnight at room temperature and centrifuged at 1800 rpm for 10 minutes, the radioactivity of the product was determined by scintillation counting on Topcount (Perkin-Elmer). IC50 determination was performed by fitting the curve of percent control activity versus the log of the inhibitor concentration using the GraphPad Prism® 3.0 software.
# T1 sequence (O00329 whole entry): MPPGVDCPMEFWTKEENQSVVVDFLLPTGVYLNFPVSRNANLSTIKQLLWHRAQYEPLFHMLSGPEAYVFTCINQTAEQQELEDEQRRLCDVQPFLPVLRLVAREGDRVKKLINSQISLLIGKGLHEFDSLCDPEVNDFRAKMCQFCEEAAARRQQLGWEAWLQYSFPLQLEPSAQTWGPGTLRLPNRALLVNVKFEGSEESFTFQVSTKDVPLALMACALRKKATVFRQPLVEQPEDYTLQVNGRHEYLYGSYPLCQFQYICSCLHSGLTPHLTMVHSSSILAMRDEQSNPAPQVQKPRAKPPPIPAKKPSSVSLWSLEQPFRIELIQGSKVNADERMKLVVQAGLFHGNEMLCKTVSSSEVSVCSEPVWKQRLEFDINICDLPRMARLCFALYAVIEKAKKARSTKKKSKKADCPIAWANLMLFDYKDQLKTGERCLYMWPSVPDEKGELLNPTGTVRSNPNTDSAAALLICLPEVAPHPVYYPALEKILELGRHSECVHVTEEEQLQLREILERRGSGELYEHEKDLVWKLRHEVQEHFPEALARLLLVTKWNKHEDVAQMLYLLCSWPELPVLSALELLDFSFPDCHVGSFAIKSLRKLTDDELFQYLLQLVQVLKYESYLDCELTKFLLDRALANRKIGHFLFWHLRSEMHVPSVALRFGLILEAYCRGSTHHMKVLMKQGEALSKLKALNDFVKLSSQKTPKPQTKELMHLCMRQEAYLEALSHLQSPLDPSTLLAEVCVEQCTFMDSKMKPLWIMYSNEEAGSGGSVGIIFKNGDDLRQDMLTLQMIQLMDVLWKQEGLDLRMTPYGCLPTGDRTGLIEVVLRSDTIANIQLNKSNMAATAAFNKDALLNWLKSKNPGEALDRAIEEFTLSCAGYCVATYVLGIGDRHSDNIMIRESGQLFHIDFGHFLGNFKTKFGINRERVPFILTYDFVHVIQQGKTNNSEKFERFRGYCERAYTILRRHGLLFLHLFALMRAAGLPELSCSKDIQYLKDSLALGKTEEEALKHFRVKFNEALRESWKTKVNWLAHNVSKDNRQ
# T1 sequence (P27986 whole entry partner): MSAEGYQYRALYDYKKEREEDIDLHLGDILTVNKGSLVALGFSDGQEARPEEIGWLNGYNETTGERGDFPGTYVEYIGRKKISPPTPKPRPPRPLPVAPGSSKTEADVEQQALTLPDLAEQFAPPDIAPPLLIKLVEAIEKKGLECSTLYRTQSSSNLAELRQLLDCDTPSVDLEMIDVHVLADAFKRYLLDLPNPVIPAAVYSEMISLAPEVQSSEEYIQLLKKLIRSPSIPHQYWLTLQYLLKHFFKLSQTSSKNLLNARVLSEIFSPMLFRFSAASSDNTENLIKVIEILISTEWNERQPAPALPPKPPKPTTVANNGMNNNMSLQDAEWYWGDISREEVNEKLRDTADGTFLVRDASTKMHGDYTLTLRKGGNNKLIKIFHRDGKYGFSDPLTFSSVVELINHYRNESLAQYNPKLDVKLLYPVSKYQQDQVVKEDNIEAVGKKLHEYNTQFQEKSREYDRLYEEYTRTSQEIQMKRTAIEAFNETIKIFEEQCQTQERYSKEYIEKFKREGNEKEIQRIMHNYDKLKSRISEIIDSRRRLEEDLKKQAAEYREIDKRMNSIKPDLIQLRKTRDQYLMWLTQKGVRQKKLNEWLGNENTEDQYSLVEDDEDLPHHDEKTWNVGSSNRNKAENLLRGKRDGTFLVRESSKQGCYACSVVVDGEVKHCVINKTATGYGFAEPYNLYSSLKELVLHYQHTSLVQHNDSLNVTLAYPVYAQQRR
row,IC50 [nM],SMILES
1,50 to 100,"CC(Nc1ncnc2[nH]cnc12)c1cc(Cl)c2ccnnc2c1-c1ccccc1F (single isomer, unassigned) [Example 27, N-{1-[5-Chloro-8-(2-fluorophenyl)cinnolin-7-yl]ethyl}-9H-purin-6-amine]"
2,100 to 250,"CC(Nc1ncnc2[nH]cnc12)c1cc(Cl)c2cccnc2c1N1CCN(C(=O)c2ccc(F)cc2)CC1 (stereo not shown) [Example 91, N-(1-{5-Chloro-8-[4-(4-fluorobenzoyl)piperazin-1-yl]quinolin-7-yl}ethyl)-9H-purin-6-amine bis(trifluoroacetate)]"
3,< 50,"CC(Nc1ncnc2[nH]cnc12)c1cc(Cl)c2cn[nH]c2c1-c1cc(F)cc(F)c1 (stereo not shown) [Example 106, N-{1-[4-Chloro-7-(3,5-difluorophenyl)-1H-indazol-6-yl]ethyl)-9H-purin-6-amine]"
4,500 to 1000,"Fc1cccc(-c2c(CNc3ncnc4[nH]cnc34)cc(Cl)c3ccnnc23)c1 [Example 31, N-{[5-Chloro-8-(3-fluorophenyl)cinnolin-7-yl]methyl}-9H-purin-6-amine trifluoroacetate]"
5,< 50,"CC(=O)NC1CCN(c2c(C(C)Nc3ncnc4[nH]cnc34)cc(Cl)c3cccnc23)CC1 (stereo not shown) [Example 82, N-(1-{5-Chloro-7-[1-(9H-purin-6-ylamino)ethyl]quinolin-8-yl}piperidin-4-yl)acetamide bis(trifluoroacetate)]"
6,> 1000,"CC(Nc1ncnc2[nH]cnc12)c1cc(Cl)c2ccnnc2c1-c1cncc(F)c1 (single isomer, unassigned) [Example 35, N-{1-[5-chloro-8-(5-fluoropyridin-3-yl)cinnolin-7-yl]ethyl}-9H-purin-6-amine trifluoroacetate]"
7,500 to 1000,"CC(Nc1ncnc2[nH]cnc12)c1ccc2cccnc2c1-c1cncc(F)c1 (stereo not shown) [Example 9, N-{1-[8-(5-fluoropyridin-3-yl)quinolin-7-yl]ethyl}-9H-purin-6-amine tris-trifluoroacetate]"
8,100 to 250,"CC(Nc1ncnc2[nH]cnc12)c1cc(F)c2ccnnc2c1-c1cc(F)cc(F)c1 (single isomer, unassigned) [Example 29, N-{1-[8-(3,5-difluorophenyl)-5-fluorocinnolin-7-yl]ethyl}-9H-purin-6-amine trifluoroacetate]"
9,< 50,"CC(Nc1ncnc2[nH]cnc12)c1cc(Cl)c2cccnc2c1N1CCN(C(=O)C2CCC2)CC1 (stereo not shown) [Example 86, N-(1-{5-Chloro-8-[4-(cyclobutylcarbonyl)piperazin-1-yl]quinolin-7-yl}ethyl)-9H-purin-6-amine bis(trifluoroacetate)]"
10,100 to 250,"Cc1cc(C(C)Nc2ncnc3[nH]cnc23)c(-c2cccc(F)c2)c2ncccc12 (stereo not shown) [Example 50, N-{1-[8-(3-Fluorophenyl)-5-methylquinolin-7-yl]ethyl}-9H-purin-6-amine]"
11,100 to 250,"CC(Nc1ncnc2[nH]cnc12)c1cc(Cl)c2cccnc2c1N1CCC(CCO)CC1 (stereo not shown) [Example 73, 2-(1-{5-Chloro-7-[1-(9H-purin-6-ylamino)ethyl]quinolin-8-yl}piperidin-4-yl)ethanol bis(trifluoroacetate)]"
12,< 50,"COCC(=O)N1CCN(c2c(C(C)Nc3ncnc4[nH]cnc34)cc(Cl)c3cccnc23)CC1 (stereo not shown) [Example 87, N-(1-{5-Chloro-8-[4-(methoxyacetyl)piperazin-1-yl]quinolin-7-yl}ethyl)-9H-purin-6-amine bis(trifluoroacetate)]"
13,< 50,"CC(Nc1ncnc2[nH]cnc12)c1cc(Cl)c2cccnc2c1N1CCN(CCO)CC1 (stereo not shown) [Example 58, 2-(4-{5-Chloro-7-[1-(9H-purin-6-ylamino)ethyl]quinolin-8-yf}piperazin-1-yl)ethanol tris(trifluoroacetate)]"
14,< 50,"COCCN1CCN(c2c(C(C)Nc3ncnc4[nH]cnc34)cc(Cl)c3cccnc23)CC1 (stereo not shown) [Example 11, N-(1-{5-chloro-8-[4-(2-methoxyethyl)piperazin-1-yl]quinolin-7-yl]ethyl)-9H-purin-6-amine tris-trifluoroacetate]"
15,100 to 250,"CC(Nc1ncnc2[nH]cnc12)c1cc(Cl)c2cccnc2c1N1CCC(C#N)CC1 (stereo not shown) [Example 59, 1-{5-Chloro-7-[1-(9H-purin-6-ylamino)ethyl]quinolin-8-yl]piperidine-4-carbonitrile bis(trifluoroacetate)]"
16,< 50,"COC(=O)N1CCN(c2c(C(C)Nc3ncnc4[nH]cnc34)cc(Cl)c3cccnc23)CC1 (stereo not shown) [Example 85, Methyl 4-{5-Chloro-7-[1-(9H-purin-6-ylamino)ethyl]quinolin-8-yl}piperazine-1-carboxylatebis(trifluoroacetate)]"
17,< 50,"CC(Nc1ncnc2[nH]cnc12)c1cc(Cl)c2cn[nH]c2c1-c1cccc(F)c1 (stereo not shown) [Example 105, N-{1-[4-Chloro-7-(3-fluorophenyl)-1H-indazol-6-yl]ethyl}-9H-purin-6-amine]"
18,< 50,"CC(Nc1ncnc2[nH]cnc12)c1cc(Cl)c2ccnnc2c1-c1ccccc1F (single isomer, unassigned) [Example 28, N-{1-[5-Chloro-8-(2-fluorophenyl)cinnolin-7-yl]ethyl}-9H-purin-6-amine]"
19,250 to 500,"CC(Nc1ncnc2[nH]cnc12)c1cc(Cl)c2cccnc2c1N1CC[C@H](F)C1 (mixture of isomers) [Example 57, N-(1-{5-Chloro-8-[(3S)-3-fluoropyrrolidin-1-yl]quinolin-7-yl}ethyl)-9H-purin-6-amine bis(trifluoroacetate)]"
20,< 50,"CC(Nc1ncnc2[nH]cnc12)c1cc(Cl)c2conc2c1-c1cccc(F)c1 (stereo not shown) [Example 104, N-{1-[4-Chloro-7-(3-fluorophenyl)-2,1-benzisoxazol-6-yl]ethyl}-9H-purin-6-amine]"
21,< 50,"CC(Nc1ncnc2[nH]cnc12)c1cc(Cl)c2cccnc2c1N1CCC(O)CC1 (stereo not shown) [Example 43, 1-{5-Chloro-7-[1-(9H-purin-6-ylamino)ethyl]quinolin-8-yl}piperidin-4-ol]"
22,100 to 250,"COC[C@H]1CCCN1c1c(C(C)Nc2ncnc3[nH]cnc23)cc(Cl)c2cccnc12 (mixture of isomers) [Example 14, N-(1-{5-chloro-8-[(2R)-2-(methoxymethyl)pyrrolidin-1-yl]quinolin-7-yl}ethyl)-9H-purin-6-amine bis-trifluoroacetate]"
23,> 1000,"CC(Nc1ncnc2[nH]cnc12)c1cc(F)c2ccnnc2c1-c1cc(F)cc(F)c1 (single isomer, unassigned) [Example 30, N-{1-[8-(3,5-difluorophenyl)-5-fluorocinnolin-7-yl]ethyl}-9H-purin-6-amine trifluoroacetate]"
24,< 50,"CC(=O)N1CCC(C(=O)N2CCN(c3c(C(C)Nc4ncnc5[nH]cnc45)cc(Cl)c4cccnc34)CC2)CC1 (stereo not shown) [Example 94, N-[1-(8-{4-[(1-Acetylpiperidin-4-yl)carbonyl]piperazin-1-yl}-5-chloroquinolin-7-yl)ethyl]-9H-purin-6-amine bis(trifluoroacetate)]"
25,< 50,"CC(Nc1ncnc2[nH]cnc12)c1cc(Cl)c2cccnc2c1N1CCN(C2CCC2)CC1 (stereo not shown) [Example 69, N-{1-[5-Chloro-8-(4-cyclobutylpiperazin-1-yl)quinolin-7-yl]ethyl}-9H-purin-6-amine tris(trifluoroacetate)]"
26,< 50,"CC(=O)N[C@H]1CCN(c2c(C(C)Nc3ncnc4[nH]cnc34)cc(Cl)c3cccnc23)C1 (stereo partly drawn) [Example 13, N-((3S)-1-{5-chloro-7-[1-(9H-purin-6-ylamino)ethyl]quinolin-8-yl}pyrrolidin-3-yl}acetamide bis-trifluoroacetate]"
27,< 50,"CC(Nc1ncnc2[nH]cnc12)c1cc(Cl)c2cccnc2c1N1CCN(C2CC2)CC1 (stereo not shown) [Example 66, N-{1-[5-Chloro-8-(4-cyclopropylpiperazin-1-yl)quinolin-7-yl]ethyl}-9H-purin-6-amine tris(trifluoroacetate)]"
28,100 to 250,"CC(Nc1ncnc2[nH]cnc12)c1cc(Cl)c2cccnc2c1N1CCC(C#N)C1 (mixture of isomers) [Example 60, 1-{5-Chloro-7-[1-(9H-purin-6-ylamino)ethyl]quinolin-8-yl}pyrrolidine-3-carbonitrile bis(trifluoroacetate)]"

# Same assay, conditions: separated isomer, 1st peak
row,IC50 [nM],SMILES
1,< 50,"CC(Nc1ncnc2[nH]cnc12)c1cc(F)c2cccnc2c1-c1cccc(F)c1 (stereo not shown) [Example 102, N-{1-[5-fluoro-8-(3-fluorophenyl)quinolin-7-yl]ethyl}-9H-purin-6-amine]"
2,100 to 250,"CC(Nc1ncnc2[nH]cnc12)c1cc(Cl)c2cccnc2c1-c1ccccc1F (stereo not shown) [Example 10, N-{1-[5-chloro-8-(2-fluorophenyl)quinolin-7-yl]ethyl}-9H-purin-6-amine bis-trifluoroacetate]"
3,> 1000,"CC(Nc1ncnc2[nH]cnc12)c1cc(Cl)c2cccnc2c1N1CC[C@@H](O)C1 (stereo partly drawn) [Example 12, (3R)-1-{5-chloro-7-[1-(9H-purin-6-ylamino)ethyl]quinolin-8-yl}pyrrolidin-3-ol bis-trifluoroacetate]"

# Same assay, conditions: separated isomer, 2nd peak
row,IC50 [nM],SMILES
1,> 1000,"CC(Nc1ncnc2[nH]cnc12)c1cc(F)c2cccnc2c1-c1cccc(F)c1 (stereo not shown) [Example 102, N-{1-[5-fluoro-8-(3-fluorophenyl)quinolin-7-yl]ethyl}-9H-purin-6-amine]"
2,< 50,"CC(Nc1ncnc2[nH]cnc12)c1cc(Cl)c2cccnc2c1-c1ccccc1F (stereo not shown) [Example 10, N-{1-[5-chloro-8-(2-fluorophenyl)quinolin-7-yl]ethyl}-9H-purin-6-amine bis-trifluoroacetate]"
3,< 50,"CC(Nc1ncnc2[nH]cnc12)c1cc(Cl)c2cccnc2c1N1CC[C@@H](O)C1 (stereo partly drawn) [Example 12, (3R)-1-{5-chloro-7-[1-(9H-purin-6-ylamino)ethyl]quinolin-8-yl}pyrrolidin-3-ol bis-trifluoroacetate]"
